For 76 compounds, EC50, IC50 and outcome results are on record in PubChem BioAssay AID179 (DTP/NCI, 2004).

The test system of the assay is CEM cells HIV-1 protection, formazan growth assay. Kind of assay: NCI AIDS Antiviral Assay. The conditions noted are these: for pIC50: measured here: growth of uninfected CEM cells. Summed up: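 Human CEM cells, uninfected and HIV-1-infected, exposed to five drug concentrations; growth measured by soluble formazan assay and scored as percent protection from infection, with protecting compounds retested.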

pEC50, pIC50: −log10 of the molar value. “And” between values parts separate entries of the source, which are not always exact repeats. Equal entries are not always repeated. The source made the active and inactive calls.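 How the source made its calls: active means compounds giving half or more protection of infected cells from virus-caused growth loss, again on retest; inactive means the rest.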 Bounds are passed on as bounds.

One may read the pEC50 as the negative decadic logarithm of the EC50, by convention in mol/L. As usually defined, the pIC50 is the negative decadic logarithm of the IC50, by convention in mol/L. A lower pIC50 goes with a high IC50.

Take `Cc1cc(C)c2ccc(N3CCNCC3)nc2n1`: the pEC50 was below 3.76 and the negative-log IC50 (pIC50) is 4.15.
The corresponding values for `CC(C)(C)/C(O)=C\c1nc2ccc(C(F)(F)F)cc2[nH]c1=O` are below 3.70 and below 3.70.
Taken in the same sequence, the figures for `NC(=O)N/N=C/C(/C=N/NC(N)=O)[N+](=O)[O-]` were below 3.95 and below 3.95.
Taken in the same sequence, the figures for `CN(C)C1C(=O)C(C(N)=O)=C(O)C2(O)C(=O)C3=C(O)c4c(O)cccc4C(C)(O)C3CC12.[Cl][Sb]([Cl])[Cl]` (stereo unspecified) were below 3.70 and 4.45.
In the case of `O=C(O)C(Cc1ccccc1)N1C(=O)N/C(=C\c2ccc(F)cc2)C1=O` (stereo unspecified), the outcome was inactive.
For the compound `CCCCCCCCCCCCCC(=O)NO`, the pEC50 is below 4.69 and the pIC50 was below 4.69.
`Cc1cn(C2CC(N=[N+]=[N-])C(COC(=O)CCCCCCCCCCN=[N+]=[N-])O2)c(=O)[nH]c1=O` (stereo unspecified): the pEC50 is 7.41 and the pIC50 is 4.54.
Taken in the same sequence, the figures for `NC(N)=C1CN(C2CCCCC2)C(=O)NC1=O` were below 2.98 and 3.10.
The corresponding values for `Cn1cc(B(O)O)c(=O)[nH]c1=O` are below 3.70 and below 3.70.
The corresponding values for `NC(CSCCCS(=O)(=O)O)C(=O)O` (stereo unspecified) are below 3.70 and below 3.70.
In the case of `CCN(CC)CCOc1ccc(/C(C#N)=C/c2ccc(OCCN3CCCCC3)cc2)cc1`, the pEC50 is below 3.70 and the pIC50 was 6.08.
For the compound `CC(C)N(C(=O)C12CC3CC(CC(C3)C1)C2)C(C)C`, the pEC50 is below 3.87 and the pIC50 is 4.38.
Taken in the same sequence, the figures for `Nc1nc2c(c(=O)[nH]1)N=C(COP(=O)(O)OP(=O)(O)O)CN2` were below 3.70 and 3.84.
The corresponding values for `O=C(O)Cn1ncn(NC(=O)Cc2ccccc2)c1=S` are below 3.70 and below 3.70.
Consider `C=C([C@@]1(O)C[C@H]2[C@H](CCC2(OC)OC)[C@@H]2c3ccccc3O[C@@H]21)[Si](C)(C)C`, for which the outcome was inactive.
The same measure, in the same setting: to `COC1CCC(O)C(CO)O1` (stereo unspecified) belongs “inactive”; to `COc1cc(CC2c3cc(OC)c(OC)cc3CC[N+]2(C)C)c(Oc2cc(CC3c4cc(OC)c(OC)cc4CC[N+]3(C)C)ccc2OC)cc1OC` (stereo unspecified), “inactive”.
In the case of `O=[N+]([O-])c1ncnc2c1ncn2C1OC(CO)CC1F` (stereo unspecified), the pEC50 was below 4.05 and the pIC50 was 4.55.
Turning to `O=[N+]([O-])c1ccccc1Sc1ccccc1`, the pEC50 was below 4.00 and the pIC50 was 4.10.
Taken in the same sequence, the figures for `CCCCCCCC1(N=[N+]=[N-])C(=O)c2ccccc2N(C)C1=O` (stereo unspecified) were 4.66 and 3.96.
Taken in the same sequence, the figures for `N#CCCN(C1=NN(C(=O)CC(=O)Nc2ccc(Cl)cc2)C(c2ccccc2)C1)c1ccc(Cl)cc1` (stereo unspecified) were below 4.30 and below 4.30.
For `O=C(O)c1c2c(nc3ccccc13)CCC2`, the pEC50 is below 3.35 and the pIC50 was below 3.35.
Turning to `CCOC(=O)c1c(SCc2ccccc2)nc2c3ccccc3ccn12`, the pEC50 was below 3.82 and the pIC50 is below 3.82.
`CCOP(=O)(OCC)OP(=O)(OCC)OCC`: the pEC50 was below 3.06 and the pIC50 was below 3.06.
Take `Fc1ccccc1-c1nn2c(C34CC5CC(CC(C5)C3)C4)nnc2s1`: the pEC50 was below 3.70 and the pIC50 was below 3.70.
For `CC(=O)Oc1cccc2c1[nH]c(=O)c1c(OC(C)=O)c3c(cc12)OCO3`, the outcome was inactive.
As for `CCOC(=O)c1c(N)sc2c1CCCC2`, the pEC50 is below 3.70 and the pIC50 was 4.25.
As for `CC(=O)[O-].O=C([N-]/N=C\c1ccsc1)c1ccncc1.[Ni+2].[OH3+].c1cnc2c(c1)ccc1cccnc12`, the pEC50 is below 3.70 and the pIC50 was 4.32.
Taken in the same sequence, the figures for `COC(=O)c1sc(=O)n(-c2ccccc2)c1SCc1ccccc1` were below 4.42 and below 4.42.
Taken in the same sequence, the figures for `COC(=O)c1ccc(C)cc1CC1Cc2cccc(C)c2C1=O` (stereo unspecified) were below 3.70 and 5.27.
The corresponding values for `COc1ccc([C@@]23CCC(=O)C[C@@H]2N(C)CC3)cc1OC` are below 3.70 and below 3.70.
For `Cn1c2c(c3ccccc31)CCN1OCC=C[C@@H](C(=O)O)[C@@H]21`, the pEC50 was below 3.70 and the negative logarithm of the IC50 (pIC50) is below 3.70.
Consider `Clc1cc(Cl)c(SSc2cc(Cl)c(Cl)cc2Cl)cc1Cl`, for which the pEC50 was below 3.70 and the pIC50 was below 3.70.
With `Cn1c(=O)n2n(c1=O)C1(CCO)CCC2(CCO)CC1`, the pEC50 was below 3.48 and the negative-log IC50 (pIC50) was below 3.48.
`CCCCCCCCCCCCCCCC=C(c1cc(Br)c(OC)c(C(=O)OC)c1)c1cc(Br)c(OC)c(C(=O)OC)c1`: the pEC50 is below 4.56 and the negative logarithm of the IC50 (pIC50) was below 4.56.
Turning to `CCO/C=N\C1=C(C#N)SC2=N/C(=C\c3ccc(OC)cc3)C(=O)N21`, the pEC50 is below 3.70 and the pIC50 is below 3.70.
Regarding `C1=c2ccccc2=C2C(=C(c3ccccc3)C(c3ccccc3)=NN2c2ccccc2)S1`, the pEC50 is below 5.33 and the negative logarithm of the IC50 (pIC50) was below 5.33.
On to `C=C1C(=O)OC2C1CCC(C)C1C=CC(=O)C12C` (stereo unspecified), for which the pEC50 is below 3.70 and the pIC50 was 5.97.
In the case of `Cc1ccc(N/N=c2\c3nc4ccccc4nc2n(-c2ccccc2C)c(=S)n3-c2ccccn2)cc1`, the pEC50 was below 4.75.
In the case of `S=C1c2cc(Cl)ccc2NC(=NC2CCCC2)C2CSCN12` (stereo unspecified), the pEC50 is below 3.70 and the negative logarithm of the IC50 (pIC50) was 4.47.
For `Oc1ccccc1C=NCCSSCCN=Cc1ccccc1O`, the result was inactive.
In the case of `N=c1oc2cc(O)c(O)cc2cc1C(N)=O`, the pEC50 is below 5.08 and the pIC50 was 5.13.
In the case of `Cc1cn(C2C=CCCC2O)c(=O)[nH]c1=O` (stereo unspecified), the pEC50 was below 3.70 and the pIC50 is below 3.70.
Consider `CC1=C[C@H](C[C@]2(C)c3c(c4c(C)cccc4oc3=O)O[C@@H]2C)OC1=O`, for which the pEC50 is below 3.70 and the negative logarithm of the IC50 (pIC50) is 4.57.
The corresponding values for `CN(C)CC/C=C1/c2ccccc2Sc2ccc(Cl)cc21` are below 3.70 and 4.56.
Consider `O=C1C[C@H](Sc2ccccc2)C2(OCCO2)[C@@H](Sc2ccccc2)C1`, for which the pEC50 is below 5.70 and the pIC50 was 5.98.
As for `O=C(Cc1ccccc1)OCCOCCOCCOCCOCCOCCOCCOCCOCCOC(=O)Cc1ccccc1`, the outcome was inactive.
On the same count and under the same terms, to `Cc1ccc(C)c(NC(=O)CCc2nc(=S)[nH][nH]2)c1` belongs “inactive”.
With `O=[N+]([O-])c1ccc(/C(Cl)=C/c2ccc(/C=C(\Cl)c3ccc([N+](=O)[O-])cc3[N+](=O)[O-])cc2)c([N+](=O)[O-])c1`, the pEC50 was below 5.85 and the pIC50 is below 5.85.
Turning to `CN1C(=O)c2ccccc2NC(=O)c2cnn(C)c21`, the result was inactive.
With `C/C(=N\NC(=S)N(C)C)c1ncc[nH]1`, the pEC50 is below 3.63 and the pIC50 was 5.37.
The corresponding values for `COC(=O)C1C2C=CC(C2)N1[C@@H](C)c1ccccc1` (stereo partly specified) are below 4.55 and below 4.55.
`O=C1CN2C(Cl)(Cl)C2(c2ccccc2)c2cc(Cl)ccc2N1CC(F)(F)F` (stereo unspecified): the pEC50 is below 3.70 and the pIC50 is 4.53.
Take `Cc1ccccc1NC(=O)C(=O)Cc1cnc2ccccc2n1`: the pEC50 is below 3.79 and the negative logarithm of the IC50 (pIC50) was below 3.79.
Regarding `COc1cc2c(cc1OC)C13CCN4CC5=CCOC6CC(=O)N2C1C6C5CC43` (stereo unspecified) (tested in a mixture with another compound), the pEC50 is below 3.70 and the pIC50 was 4.27.
Taken in the same sequence, the figures for `CC1CN(C=O)CC(C)N1CCN1C(C)CN(C=O)CC1C` (stereo unspecified) were below 3.54 and below 3.54.
For `CCOC(=O)CC(CC(=O)OCC)n1cnc2c(N)ncnc21`, the result was inactive.
Take `COC1(OC)c2occc2C(=N)c2ccc(=O)oc21`: the pEC50 was below 3.70 and the negative logarithm of the IC50 (pIC50) is 3.89.
For the compound `CC(=O)OC1OC(C2c3cccc(O)c3C(=O)c3c(O)cc(CO)cc32)C(O)C(O)C1O` (stereo unspecified), the pEC50 is below 3.70; the pIC50 was 5.39 and 5.38.
Turning to `CN1CCN(c2ccc3nc(-c4ccc5nc(-c6ccc(O)cc6)[nH]c5c4)[nH]c3c2)CC1`, the pEC50 is below 3.30 and the negative-log IC50 (pIC50) is 5.41.
Taken in the same sequence, the figures for `Nc1ccnc(N)c1N=O` were below 3.70 and 4.56.
Regarding `COC(=O)[C@]1(c2ccc(N(C)C)cc2OC)C[C@@H]2CCCN(CCc3c1[nH]c1ccccc31)C2`, the result was inactive.
As to `Nc1ccn(CC(=O)NCCCCO)c(=O)n1`, the pEC50 was below 3.70 and the pIC50 is below 3.70.
As to `O=C(CCC(=O)Nc1ccc(Cl)cc1)CC(=O)c1ccc(F)cc1`, the outcome was inactive.
With `Cc1cccc(C)c1NC(=O)CCCC(=O)C(C#N)c1ccccc1` (stereo unspecified), the pEC50 is below 3.13 and the pIC50 is below 3.13.
Consider `COc1ccc(NC(=S)NN=C(C)c2cccc(C(C)=NNC(=S)Nc3ccc(OC)cc3)n2)cc1`, for which the pEC50 was below 3.70 and the pIC50 is 4.26.
Taken in the same sequence, the figures for `CCCC(C)(COC(N)=O)COC(=O)NC1CC1` (stereo unspecified) were below 3.70 and below 3.70.
The corresponding values for `N#CC(NC12CC3CC(CC(C3)C1)C2)c1ccccc1C(F)(F)F` (stereo unspecified) are below 4.11 and below 4.11.
Taken in the same sequence, the figures for `COC(=O)c1ccccc1C#CCCCOS(C)(=O)=O` were below 3.70 and below 3.70.
Turning to `CC(=O)C(N=Nc1nc2ccccc2[nH]1)C(C)=O`, the pEC50 was below 3.70 and the negative-log IC50 (pIC50) was 4.70.
For the compound `O=C1CCC2(c3ccc(F)cc3)Nc3ccccc3N12` (stereo unspecified), the outcome was inactive.
For `CCCOC(=O)C(C)(C)C(OP(=O)(OCCC)OCCC)=C(C)C`, the pEC50 was below 3.70 and the negative logarithm of the IC50 (pIC50) is 3.98.
Taken in the same sequence, the figures for `CCOC1OC(c2ccccc2)=NS(=O)(=O)C1(C)C` (stereo unspecified) were below 3.05 and 3.29.
For the compound `CNC(=O)O/N=C\C=N\OC(=O)NC`, the outcome was inactive.
Same read-out and setting: to `O=[N+]([O-])c1ccc(CS(=O)(=O)c2ccccc2)cc1` belongs “inactive”.
For `CCOc1ccc(NC(=S)NC=C(C#N)C#N)cc1`, the pEC50 is below 3.70 and the pIC50 is below 3.70.
